{"source": "paper PMC2727864", "about": "(Molecular cancer therapeutics, 2008)", "key": {"phospho-Ser473 AKT [1]": {"tested_on": "phospho-Ser473 AKT", "experiment": "Inhibition of phospho-Ser473 AKT by Western analysis in HT-29 cells", "type": "cell-based, human"}, "phospho-(pan)-PKC": {"tested_on": "phospho-(pan)-PKC", "experiment": "Phospho-", "type": "cell-based, human", "conditions": "HT-29, 2 hr, EGF stimulated, Western blot"}, "[2]": {"experiment": "Metabolic stability, incubation with HT-29 cells in DMEM at 37°C", "type": "in vitro ADME", "conditions": "human"}, "Toxicity studies in mice": {"experiment": "Toxicity studies in mice", "type": "in vivo, mouse"}, "phospho-Ser241 PDK1": {"tested_on": "phospho-Ser241 PDK1", "experiment": "Phospho-Ser241 PDK1 Western analysis in HT-29 cells", "type": "cell-based, human", "conditions": "HT-29, 2 hr, EGF stimulated, Western blot"}, "[3]": {"tested_on": "HT-29 colon cancer xenografts", "experiment": "Anti-tumor activity, HT-29 colon cancer xenografts in scid mice", "type": "in vivo, mouse", "conditions": "orally daily for 5 days at 250 mg/kg"}, "Solubility": {"experiment": "Solubility", "type": "physicochemical"}, "phospho-Ser473 AKT [4]": {"tested_on": "phospho-Ser473 AKT", "experiment": "Inhibition of phospho-Ser473 AKT by Western analysis in NIH3T3 cells", "type": "cell-based", "conditions": "Mus musculus, NIH3T3, read-out: AKT inhibition (IC50) NIH3T3"}, "LogP": {"experiment": "LogP", "type": "physicochemical"}, "[5]": {"experiment": "Pharmacokinetic study, plasma concentration in mice", "type": "in vivo, mouse"}, "tumor phospho-Ser473 AKT": {"tested_on": "tumor phospho-Ser473 AKT", "experiment": "Pharmacodynamic study, tumor phospho-Ser473 AKT in HT-29 xenografts", "type": "in vivo, mouse"}, "[6]": {"conditions": "five daily doses at 250 mg/kg ip"}, "[7]": {"conditions": "24 hr after a single dose 250 mg/kg"}}, "note": "Values joined by “and” are separate entries in the source; they are usually repeats but may differ in a detail not shown here. Identical values can stand only once."}
{"smiles": "CC1=NN(C(=O)c2ccc(Cl)cc2)C(=O)C1N=Nc1ccc(S(=O)(=O)Nc2ncccn2)cc1", "note": "(centres unmarked) [Compound 1, 4-[1-(4-Chlorobenzoyl)-3-methyl-5-oxo-4,5-dihydro-1H-pyrazol-4-ylazo]-N-pyrimidin-2-yl-benzenesulfonamide]", "values": [{"measurement": "AKT phosphorylation, concentration response", "setting": "phospho-Ser473 AKT [1]; HT-29, 2 hr, EGF stimulated, Western blot", "value": "decreased in a concentration-dependent manner"}, {"measurement": "IC50", "setting": "phospho-Ser473 AKT [1]; Homo sapiens, HT-29, read-out: AKT inhibition (IC50) HT-29", "value": 13, "unit": "µM"}, {"measurement": "phosphorylation of PKC", "setting": "phospho-(pan)-PKC", "value": "decreased"}, {"measurement": "half-life", "setting": "[2]", "value": 1.03, "unit": "h"}, {"measurement": "body weight, blood lymphocyte, red blood cell and platelet count, AST, ALT", "setting": "Toxicity studies in mice; [6]", "value": "no change"}, {"measurement": "neutropenia", "setting": "Toxicity studies in mice; [6]", "value": "moderate neutropenia"}, {"measurement": "toxicity, single dose", "setting": "Toxicity studies in mice; single dose up to 250 mg/kg, ip, mice", "value": "no toxicity"}, {"measurement": "phosphorylation of PDK", "setting": "phospho-Ser241 PDK1", "value": "decreased"}, {"measurement": "anti-tumor activity", "setting": "[3]", "value": "no activity"}, {"measurement": "solubility", "setting": "Solubility", "value": "very insoluble and 17.9 µM"}, {"measurement": "IC50", "setting": "phospho-Ser473 AKT [4]", "value": 4, "unit": "µM"}, {"measurement": "logP", "setting": "LogP", "value": 2.1}, {"measurement": "peak plasma concentration, ip", "setting": "[5]; single dose 250 mg/kg ip", "value": 1.4, "unit": "µM"}, {"measurement": "peak plasma concentration, oral", "setting": "[5]; single dose 250 mg/kg oral", "value": 0.6, "unit": "µM"}, {"measurement": "inhibition of tumor phospho-Ser473 AKT at 4 hr", "setting": "tumor phospho-Ser473 AKT; 4 hr after a single dose 250 mg/kg", "value": "small inhibition"}, {"measurement": "inhibition of tumor phospho-Ser473 AKT at 24 hr", "setting": "tumor phospho-Ser473 AKT; [7]", "value": "no inhibition"}, {"measurement": "total AKT in tumor compared to actin loading control", "setting": "tumor phospho-Ser473 AKT; [7]", "value": "significant decrease"}]}
